For orientation: Km means the substrate concentration at which the rate is half of its maximum. Broadly, the inhibition is the percentage by which the read-out fell short of the control. For orientation: IC50 means the point on the concentration scale where inhibition reaches its midpoint. Read a low IC50 as greater potency.

Like-named read-outs stand apart in the source and are kept apart here.

Data set [1] deals with T1, hCNT1b (Homo sapiens, UniProt O00337).
T1 sequence (O00337 2-649 V189I/N409S/D521N): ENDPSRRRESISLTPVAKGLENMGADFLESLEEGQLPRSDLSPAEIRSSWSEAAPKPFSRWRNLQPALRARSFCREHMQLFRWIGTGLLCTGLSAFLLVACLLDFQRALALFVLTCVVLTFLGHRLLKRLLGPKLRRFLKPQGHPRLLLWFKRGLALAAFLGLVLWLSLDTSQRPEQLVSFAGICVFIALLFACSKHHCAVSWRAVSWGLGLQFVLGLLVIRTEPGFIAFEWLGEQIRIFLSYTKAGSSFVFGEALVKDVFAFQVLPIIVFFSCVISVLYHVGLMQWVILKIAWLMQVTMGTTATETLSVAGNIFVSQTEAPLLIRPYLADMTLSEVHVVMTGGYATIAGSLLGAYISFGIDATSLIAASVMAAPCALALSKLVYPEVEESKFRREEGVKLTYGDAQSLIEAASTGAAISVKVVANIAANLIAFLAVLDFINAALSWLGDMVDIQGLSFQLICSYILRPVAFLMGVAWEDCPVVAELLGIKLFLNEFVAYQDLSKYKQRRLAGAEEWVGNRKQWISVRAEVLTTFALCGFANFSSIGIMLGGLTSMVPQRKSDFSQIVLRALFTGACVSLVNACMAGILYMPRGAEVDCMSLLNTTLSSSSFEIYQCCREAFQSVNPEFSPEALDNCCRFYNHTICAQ
Nature of the data set: influx of radiolabelled nucleosides in Xenopus oocytes injected with hCNT1b RNA transcript. The format is cell-based. The following applies: hCNT1b.

The target in data set [2] is T1, hCNT1b. Nature of the data set: inhibition of hCNT1b-mediated influx of [3H]uridine in Xenopus oocytes. The format is cell-based. The following applies: uridine 10 μM. From the text: H2 O, water-injected oocytes.
The next data set concerns rat jejunum. Nature of the data set: uptake of [3H]AZT by rat jejunum in vivo.
For data set [3], the target named is T2, hCNT1a (Homo sapiens, UniProt O00337).
T2 sequence (O00337 with tags, fused parts or gaps E34G/INS140V): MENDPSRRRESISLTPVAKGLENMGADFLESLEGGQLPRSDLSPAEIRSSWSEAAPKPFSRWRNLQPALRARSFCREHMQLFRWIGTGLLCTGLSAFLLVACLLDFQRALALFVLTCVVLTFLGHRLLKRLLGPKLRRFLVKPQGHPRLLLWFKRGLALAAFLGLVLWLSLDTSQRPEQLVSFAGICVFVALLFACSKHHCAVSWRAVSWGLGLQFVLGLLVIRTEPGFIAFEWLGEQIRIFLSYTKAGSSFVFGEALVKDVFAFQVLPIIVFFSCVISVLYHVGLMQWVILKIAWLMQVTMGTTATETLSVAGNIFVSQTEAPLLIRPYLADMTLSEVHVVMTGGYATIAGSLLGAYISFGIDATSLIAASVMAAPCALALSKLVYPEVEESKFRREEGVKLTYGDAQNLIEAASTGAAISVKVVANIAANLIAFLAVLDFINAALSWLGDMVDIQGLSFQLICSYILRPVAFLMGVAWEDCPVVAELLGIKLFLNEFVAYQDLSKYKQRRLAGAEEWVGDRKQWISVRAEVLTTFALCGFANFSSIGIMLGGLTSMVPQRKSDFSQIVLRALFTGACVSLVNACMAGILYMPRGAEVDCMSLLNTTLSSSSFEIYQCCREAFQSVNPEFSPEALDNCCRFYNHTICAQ
Nature of the data set: inhibition of hCNT1a-mediated influx of [3H]uridine in Xenopus oocytes. Particulars: uridine 10 μM.

Data set [4] addresses T3, CNT1 (Rattus norvegicus, UniProt Q62674).
T3 sequence (Q62674 1-648): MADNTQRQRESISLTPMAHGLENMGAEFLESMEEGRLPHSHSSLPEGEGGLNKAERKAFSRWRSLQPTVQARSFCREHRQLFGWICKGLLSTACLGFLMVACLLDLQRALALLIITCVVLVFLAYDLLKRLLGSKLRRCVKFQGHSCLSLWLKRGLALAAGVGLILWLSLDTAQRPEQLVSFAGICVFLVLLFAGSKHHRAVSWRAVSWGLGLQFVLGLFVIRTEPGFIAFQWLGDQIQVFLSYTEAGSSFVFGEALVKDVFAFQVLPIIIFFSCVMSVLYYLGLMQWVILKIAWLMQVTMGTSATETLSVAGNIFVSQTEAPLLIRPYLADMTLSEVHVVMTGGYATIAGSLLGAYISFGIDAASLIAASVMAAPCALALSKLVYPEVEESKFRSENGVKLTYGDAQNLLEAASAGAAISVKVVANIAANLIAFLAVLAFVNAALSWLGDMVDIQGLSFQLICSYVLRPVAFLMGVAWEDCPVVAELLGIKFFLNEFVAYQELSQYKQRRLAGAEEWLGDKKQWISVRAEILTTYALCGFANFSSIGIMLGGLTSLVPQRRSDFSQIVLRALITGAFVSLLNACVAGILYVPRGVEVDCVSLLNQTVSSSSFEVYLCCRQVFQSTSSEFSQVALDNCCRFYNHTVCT
Nature of the data set: inhibition of CNT1-mediated nucleoside (uridine, AZT, ddC) transport in Xenopus oocytes. In kind it is cell-based. How it is done:
(§1) Oocytes were injected with water or RNA transcribed in vitro from the nucleoside transporter cDNA (pQQH1). […] For panels c and d, the permeant concentration was 10 μM and competing nonradioactive nucleosides were present at a concentration of 1 mM.
(§2) Remaining template was removed by digestion with RQ1 DNase. Oocytes were treated with collagenase to remove follicular layers (Huang et al, 1993) and injected with 10 ng of pQQH1 cRNA or water. […] At the end of the incubation, extracellular label was removed by six rapid ice-cold washes in the appropriate transport buffer. Individual oocytes were dissolved in 5% SDS for quantitation of oocyte-associated ^3 H by liquid scintillation counting (LS 6000 IC, Beckman).

Data set [5] has as its target T2, hCNT1a. Nature of the data set: influx of radiolabelled nucleosides in Xenopus oocytes injected with hCNT1a RNA transcript.
Data set [6] addresses T3, CNT1. Nature of the data set: uptake/influx of radiolabelled nucleosides in Xenopus oocytes injected with pQQH1 (rat CNT1) cRNA. The format is cell-based. The following applies: for Vmax: rat CNT1, permeant = labelled substance. The protocol: as §1
Oocytes injected with water or in vitro transcribed RNA from pQQH1 were incubated with radiolabeled permanent (10 μM) for 30 min (open columns) or 1 h (hatched columns) at 20° C. Each value represents the mean ±S. E. of 8-10 ooctyes.
as §2

Another data set has as its system cit transporter. The following applies: Terasaki et al, 1993; cited from earlier work.
For data set [7] the following is noted: cited from earlier work.
Data set [8] has as its target T3, CNT1. The following applies: Yao et al. in press; cited from earlier work.
Another data set deals with kidney. Particulars: humans, mice (adenosine also rat); cited from earlier work.
The test system of data set [9] is human erythrocyte es transporter. The following applies: cited from earlier work.
The test system of a further data set is human erythrocytes. The following applies: cited from earlier work.
Substrate in data set [10]: O=c1ccn([C@@H]2O[C@H](CO)[C@@H](O)[C@H]2O)c(=O)[nH]1
Nature of the data set: cells, lysate or membranes. Particulars: other: rat CNT1, 20° C., pH 7.5.

Substrate in data set [11]: Nc1ccn([C@H]2CC[C@@H](CO)O2)c(=O)n1
Nature of the data set: uptake/influx of radiolabelled nucleosides in Xenopus oocytes injected with pQQH1 (rat CNT1) cRNA. In kind it is cell-based. The following applies: other: rate versus concentration studies, pH 7.5, 20.0 °C.

[12] abbreviates: 10 μM, same experiment as adenosine (FIG. 14A).

Take `O=c1ccn([C@@H]2O[C@H](CO)[C@@H](O)[C@H]2O)c(=O)[nH]1` [uridine]: the “Vmax, influx of uridine” value is 22±2 pmol/oocyte.min^-1 on hCNT1b [1] and 26±1 pmol/oocyte.min^-1 on hCNT1a [5] (hCNT1a). For the same molecule, the Km at hCNT1b [1] (read-out: apparent Km, influx of uridine) amounted to 37 ± 10 µM. The “inhibition of uridine fluxes, hCNT1b” value at hCNT1b [2] (competitor 1 mM (FIG. 12B)) is recorded as “inhibited”. Moreover, the “inhibition of [3H]AZT uptake by rat jejunum in vivo” value with rat jejunum is recorded as “inhibited by uridine”. Moreover, at hCNT1a [3] (competitor 1 mM (FIG. 12A), guanosine also in FIG. 13), the “inhibition of uridine fluxes, hCNT1a” value is “inhibited”. The inhibition at 1000 µM on CNT1 [4] (read-out: inhibition of expressed AZT uptake) and at CNT1 [4] (read-out: inhibition of expressed ddC uptake) was over 95% each time. Also, on hCNT1a [5] (10 μM, 100 mM NaCl (FIG. 9)), the “uridine influx in Na+-medium” value turned out to be 4.88±0.70 pmol/oocyte.min^-1. Moreover, the “uridine influx in choline-medium” value at hCNT1a [5] (10 μM, 100 mM choline chloride (FIG. 9)) is given as 0.18±0.01 pmol/oocyte.min^-1. For the same molecule, the “uridine flux, hCNT1a” value at hCNT1a [5] (setting [12]) is listed as 3.68±0.46 pmol/oocyte.min^-1. Besides, the “Na+-independent uridine influx” value on hCNT1a [5] (50 μM uridine (FIG. 11)) is 0.81±0.14 pmol/oocyte.min^-1. The “intracellular concentration higher than that in the extracellular medium” value at CNT1 [6] (10 μM uridine, 30 min) is reported as “approximately 6 -fold”. On CNT1 [6] (10 μM, 20° C., 30 min, pQQH1 cRNA-injected), the “cellular content of uridine after 30 min” value is given as 64 pmol/oocyte. In addition, on CNT1 [6] (setting [12]), the “uridine flux, rCNT1” value was found to be 5.60±0.38 pmol/oocyte.min^-1. The “effect of substitution of Cl- by gluconate on flux” value at CNT1 [6] (100 mM NaCl or sodium gluconate, 10 mM HEPES, pH 7.6) is on record as “unaffected”. The “Vmax (uridine transport)” value at CNT1 [6] (rat CNT1) is reported as 21 pmol/oocyte-min^-1. Also, the Vmax at CNT1 [6] worked out at 21 pmol/oocyte.min^-1.

`Cc1cn([C@H]2C[C@H](N=[N+]=[N-])[C@@H](CO)O2)c(=O)[nH]c1=O` [AZT, 3'-azido-3'-deoxythymidine]: in the data set on cit transporter, the “cit-mediated uridine transport, inhibition” value is reported as “inhibited”. Besides, in [7] (Good et al. 1990, Griffiths et al. 1992), the “excretion in the urine” value was “excreted in the urine either unchanged or as the glucuronide conjugate”. In addition, in [7] (oral), the “absorption by the gastrointestinal systems of humans and rats” value is recorded as “absorbed efficiently”. In addition, the “inhibition of hCNT1b-mediated influx of uridine” value at hCNT1b [2] (analog 5 mM (FIG. 12B)) is given as “inhibited”. For the same molecule, the “uptake of [3H]AZT by rat jejunum in vivo” value in the data set with rat jejunum was “Na^+ -dependent”. Further, at CNT1 [8], the “transport by recombinant rCNT1 in oocytes” value is “transports AZT”. Moreover, at hCNT1a [3] (analog 5 mM (FIG. 12A)), the “inhibition of hCNT1a-mediated influx of uridine” value is “inhibited”. Besides, the net renal handling entry with kidney is reported as “net renal secretion”. This molecule also had an IC50 on CNT1 [4] of under 1 mM. The “transport by hCNT1” value at hCNT1a [5] is “transport”. The “mediated flux, hCNT1a” value on hCNT1a [5] (10 μM permeant (FIG. 14)) turned out to be 4.79±0.41 pmol/oocyte.10 min^-1. Also, the “transport by equilibrative nucleoside transporters” value in data set [9] is “not transported”. Also, in the data set on human erythrocytes, the “rate of entry into human erythrocytes relative to those of thymidine and cytidine” value is listed as under 2%. The CNT1-mediated uptake/transport entry on CNT1 [6] (10 μM permeant) was “large increases”. For the same molecule, at CNT1 [6] (10 μM permeant (FIG. 14)), the “mediated flux, rCNT1” value came to 4.10±0.34 pmol/oocyte.10 min^-1. Also, on CNT1 [6] (10 μM, 10-min flux), the “Na+ dependence of initial rate of expressed uptake” value worked out at 77%. Moreover, the Vmax at CNT1 [6] is reported as 28 pmol/oocyte.min^-1. Also, the Km at CNT1 [6] (rate versus concentration studies, rat CNT1, read-out: apparent Km) came out at 490 µM.

B1: CNT1 (Rattus norvegicus) (protein)
chain: MADNTQRQRESISLTPMAHGLENMGAEFLESMEEGRLPHSHSSLPEGEGGLNKAERKAFSRWRSLQPTVQARSFCREHRQLFGWICKGLLSTACLGFLMVACLLDLQRALALLIITCVVLVFLAYDLLKRLLGSKLRRCVKFQGHSCLSLWLKRGLALAAGVGLILWLSLDTAQRPEQLVSFAGICVFLVLLFAGSKHHRAVSWRAVSWGLGLQFVLGLFVIRTEPGFIAFQWLGDQIQVFLSYTEAGSSFVFGEALVKDVFAFQVLPIIIFFSCVMSVLYYLGLMQWVILKIAWLMQVTMGTSATETLSVAGNIFVSQTEAPLLIRPYLADMTLSEVHVVMTGGYATIAGSLLGAYISFGIDAASLIAASVMAAPCALALSKLVYPEVEESKFRSENGVKLTYGDAQNLLEAASAGAAISVKVVANIAANLIAFLAVLAFVNAALSWLGDMVDIQGLSFQLICSYVLRPVAFLMGVAWEDCPVVAELLGIKFFLNEFVAYQELSQYKQRRLAGAEEWLGDKKQWISVRAEILTTYALCGFANFSSIGIMLGGLTSLVPQRRSDFSQIVLRALITGAFVSLLNACVAGILYVPRGVEVDCVSLLNQTVSSSSFEVYLCCRQVFQSTSSEFSQVALDNCCRFYNHTVCT
notes: identified as pQQH1, has an open reading frame encoding a 648-amino acid protein; expressed in transfected cells; host or cells: Xenopus oocytes injected with pQQH1 cRNA
Take B1: the values for the Km in data set [10] and in data set [11] were 37 µM and 0.51 mM, respectively.

These data come from patent publication US6153740A, “cDNA encoding nucleoside transporter” (University of Alberta, priority 1997, dated 2000).
